Experiments:
[1] = tested on: CCK-4 induced stress model; test: Antianxiety effect (2): freezing time in CCK-4 induced stress model; format: in vivo; details: rat, 1 and 3 mg/kg oral, 2 h before CCK-4 3 mg/kg s.c., Steel test
Procedure: Male LEW/CrlCrlj rats (Charles River Laboratories Japan, Inc., at the time of evaluation: 6 weeks old) were used. In accordance with Rupprecht et al. method (Science, Vol. 325, p. 490-493, 2009), cholecystokinin tetrapeptide (CCK-4) (3 mg/kg) was administered subcutaneously to the rat to induce freezing behavior which was used as an indicator of anxiety. The vehicle (0.5 w/v % methylcellulose 400 cP solution) or the compound of the present invention (1 or 3 mg/kg) was orally administered to the rat. Two hours after the administration, CCK-4 (3 mg/kg) was subcutaneously administered. Two minutes after the administration of CCK-4, the front paws of the rat were placed on a wooden block of height 7 cm. […] Instead of CCK-4, the normal group was administered 1% dimethyl formamide which is the vehicle of CCK-4. Cut-off time was set to 120 seconds. This trial was carried out a total five times at about 2 minute intervals, and the sum of the freezing time was calculated.

brain TSPO [2] = biological target: T1, brain TSPO (Homo sapiens, UniProt P30536); test: Prediction of brain TSPO occupancy in steady state, once daily in humans (Biological example 8); details: for ROmax (%) Predicted 5 percentile / ROmax (%) Predicted 95 percentile / ROmax (%) Predicted median: maximum brain TSPO occupancy; for ROmin (%) Predicted 5 percentile / ROmin (%) Predicted 95 percentile / ROmin (%) Predicted median: minimum brain TSPO occupancy
T1 construct: from tissue; host or cells: living human brain (PET, healthy adults)
T1 sequence (P30536 whole entry): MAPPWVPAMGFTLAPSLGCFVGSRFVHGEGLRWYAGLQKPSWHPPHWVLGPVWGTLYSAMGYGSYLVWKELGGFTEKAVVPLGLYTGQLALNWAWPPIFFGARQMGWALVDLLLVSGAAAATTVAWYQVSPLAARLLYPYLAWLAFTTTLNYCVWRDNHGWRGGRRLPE
Source text: Further, a transition in the plasma concentration of the compound of the present invention, in a steady state when administered once daily, was predicted. And brain TSPO occupancy was predicted by using the relationship between plasma concentration and brain TSPO occupancy that shown in FIG. 5.

brain TSPO [3] = biological target: T2, brain TSPO (Rattus norvegicus, UniProt P16257); test: Ex vivo brain TSPO occupancy in rats, [3H] PK11195 radiotracer (Biological example 1); details: for receptor occupancy at 0.1 mg/kg / receptor occupancy at 0.3 mg/kg / receptor occupancy at 1 mg/kg / receptor occupancy at 3 mg/kg: rat, po, [3H] PK11195; for receptor occupancy at 0.1 mg/kg: 0.1 mg/kg oral; for receptor occupancy at 0.3 mg/kg: 0.3 mg/kg oral; for receptor occupancy at 1 mg/kg: 1 mg/kg oral; for receptor occupancy at 3 mg/kg: 3 mg/kg oral
T2 construct: measured by using brain (cerebral cortex and hippocampus) homogenates of the vehicle treated group and the compound of the present invention treated group; from tissue; host or cells: Wistar rat brain (cerebral cortex, hippocampus) homogenate
Procedure: Male Sic: Wistar rats (Japan SLC, Inc., at the time of use: 11 weeks old) was exposed to physical and mental stressors (Journal of Pharmacological Science, Vol. 104, p. 263-273, 2007). The vehicle (0.5 w/v % methylcellulose 400 cP solution) or the compound of the present invention (0.1, 0.3, 1 and 3 mg/kg) was orally administered. Two hours after the administration, the stressor load was started by putting the rat in a restraint stress cage (Natsume Seisakusho Co., Ltd.). The antistress effect was evaluated by measuring the stool weight which was excreted during the stressor load of 1 hour (n=12 in each group).
Next, brain TSPO occupancy of the compound of the present invention was measured by using brain (cerebral cortex and hippocampus) homogenates of the vehicle treated group and the compound of the present invention treated group, using [^3H] PK11195 as a radiotracer. PK11195 was dissolved in dimethyl sulfoxide (DMSO) to prepare a 4 mmol/L solution. After preparing an ethanol solution of 100 nmol/L [^3H] PK11195 (PerkinElmer, Inc.), the solution was diluted 50-fold with 50 mmol/L HEPES buffer (Sigma-Aldrich Co.). In the case of determining the total binding amount of the radiotracer, 50 mmol/L HEPES (99 μL) and DMSO (1 μL) were added to Nunc MiniSorp (trade name, 12×75 mm, Thermo Fisher Scientific Inc.). In the case of determining the nonspecific binding amount of the radiotracer, 4 mmol/L PK11195 (1 μL) was substituted for DMSO (1 μL). The brain homogenate (50 μL) derived from cerebral cortex or the hippocampus was added to the tube. Then [^3H] PK11195 (50 μL) (cerebral cortex: final concentration 0.4532 nmol/L, hippocampus: final concentration 0.4520 nmol/L) was added and stirred, and the mixture was incubated for 90 minutes at 4° C. After completion of the reaction, ice-cold 50 mmol/L HEPES (2 mL) was added to the tube, and then the mixture was suction filtered on a glass fiber filter (GF/B, Brandel Inc.) which pretreated with 0.3 w/v % polyethyleneimine (Sigma-Aldrich Co.), to collect the brain homogenate. After drying the glass fiber filter, the absorbing part of the brain homogenate was transferred to a liquid scintillation vial. ACS-II scintillation cocktail (7 mL) was added to the liquid scintillation vial and stirred, and the radioactivity was measured by liquid scintillation counter (TRI-CARB2900TR, PerkinElmer Life and Analytical Sciences Inc.). Specific binding amount (dpm) of [3H] PK11195 in each brain homogenate was set to a value obtained by subtracting the nonspecific binding amount (dpm) from the total binding amount (dpm). TSPO occupancy (%) in cerebral cortex and hippocampus, of the compound of the present invention treated group, were calculated according to the following equation.
TSPO Occupancy (%)=(1−X/Y)×100
X: Specific binding amount (dpm) in each brain homogenate Y: Average value (dpm) of specific binding amount in control group

ROmax (%) Predicted 5 percentile (brain TSPO [2]; dose 1 mg): 28.3%
ROmax (%) Predicted 95 percentile (brain TSPO [2]; dose 1 mg): 48.8%
ROmax (%) Predicted median (brain TSPO [2]; dose 1 mg): 38.4%
ROmin (%) Predicted 5 percentile (brain TSPO [2]; dose 1 mg): 11.5%
ROmin (%) Predicted 95 percentile (brain TSPO [2]; dose 1 mg): 30.5%
ROmin (%) Predicted median (brain TSPO [2]; dose 1 mg): 19.4%
ROmax (%) Predicted 5 percentile (brain TSPO [2]; dose 5 mg): 60.5%
ROmax (%) Predicted 95 percentile (brain TSPO [2]; dose 5 mg): 84.6%
ROmax (%) Predicted median (brain TSPO [2]; dose 5 mg): 72.0%
ROmin (%) Predicted 5 percentile (brain TSPO [2]; dose 5 mg): 38.0%
ROmin (%) Predicted 95 percentile (brain TSPO [2]; dose 5 mg): 67.7%
ROmin (%) Predicted median (brain TSPO [2]; dose 5 mg): 52.5%
ROmax (%) Predicted 5 percentile (brain TSPO [2]; dose 10 mg): 69.6%
ROmax (%) Predicted 95 percentile (brain TSPO [2]; dose 10 mg): 94.2%
ROmax (%) Predicted median (brain TSPO [2]; dose 10 mg): 80.9%
ROmin (%) Predicted 5 percentile (brain TSPO [2]; dose 10 mg): 52.8%
ROmin (%) Predicted 95 percentile (brain TSPO [2]; dose 10 mg): 81.0%
ROmin (%) Predicted median (brain TSPO [2]; dose 10 mg): 67.1%
ROmax (%) Predicted 5 percentile (brain TSPO [2]; dose 20 mg): 75.1%
ROmax (%) Predicted 95 percentile (brain TSPO [2]; dose 20 mg): 100.0%
ROmax (%) Predicted median (brain TSPO [2]; dose 20 mg): 86.4%
ROmin (%) Predicted 5 percentile (brain TSPO [2]; dose 20 mg): 64.6%
ROmin (%) Predicted 95 percentile (brain TSPO [2]; dose 20 mg): 91.5%
ROmin (%) Predicted median (brain TSPO [2]; dose 20 mg): 77.6%
ROmax (%) Predicted 5 percentile (brain TSPO [2]; dose 30 mg): 77.0%
ROmax (%) Predicted 95 percentile (brain TSPO [2]; dose 30 mg): 102.6%
ROmax (%) Predicted median (brain TSPO [2]; dose 30 mg): 88.5%
ROmin (%) Predicted 5 percentile (brain TSPO [2]; dose 30 mg): 69.7%
ROmin (%) Predicted 95 percentile (brain TSPO [2]; dose 30 mg): 94.9%
ROmin (%) Predicted median (brain TSPO [2]; dose 30 mg): 81.8%
ROmax (%) Predicted 5 percentile (brain TSPO [2]; dose 50 mg): 78.7%
ROmax (%) Predicted 95 percentile (brain TSPO [2]; dose 50 mg): 104.0%
ROmax (%) Predicted median (brain TSPO [2]; dose 50 mg): 90.2%
ROmin (%) Predicted 5 percentile (brain TSPO [2]; dose 50 mg): 74.1%
ROmin (%) Predicted 95 percentile (brain TSPO [2]; dose 50 mg): 99.0%
ROmin (%) Predicted median (brain TSPO [2]; dose 50 mg): 85.8%
ROmax (%) Predicted 5 percentile (brain TSPO [2]; dose 60 mg): 78.8%
ROmax (%) Predicted 95 percentile (brain TSPO [2]; dose 60 mg): 104.2%
ROmax (%) Predicted median (brain TSPO [2]; dose 60 mg): 91.0%
ROmin (%) Predicted 5 percentile (brain TSPO [2]; dose 60 mg): 75.0%
ROmin (%) Predicted 95 percentile (brain TSPO [2]; dose 60 mg): 100.1%
ROmin (%) Predicted median (brain TSPO [2]; dose 60 mg): 87.0%
ROmax (%) Predicted 5 percentile (brain TSPO [2]; dose 70 mg): 79.4%
ROmax (%) Predicted 95 percentile (brain TSPO [2]; dose 70 mg): 104.8%
ROmax (%) Predicted median (brain TSPO [2]; dose 70 mg): 91.2%
ROmin (%) Predicted 5 percentile (brain TSPO [2]; dose 70 mg): 76.4%
ROmin (%) Predicted 95 percentile (brain TSPO [2]; dose 70 mg): 101.1%
ROmin (%) Predicted median (brain TSPO [2]; dose 70 mg): 88.2%
ROmax (%) Predicted 5 percentile (brain TSPO [2]; dose 100 mg): 80.1%
ROmax (%) Predicted 95 percentile (brain TSPO [2]; dose 100 mg): 106.1%
ROmax (%) Predicted median (brain TSPO [2]; dose 100 mg): 92.1%
ROmin (%) Predicted 5 percentile (brain TSPO [2]; dose 100 mg): 77.6%
ROmin (%) Predicted 95 percentile (brain TSPO [2]; dose 100 mg): 103.1%
ROmin (%) Predicted median (brain TSPO [2]; dose 100 mg): 90.0%
receptor occupancy at 0.1 mg/kg (brain TSPO [3]; rat cerebral cortex): 11.8%
receptor occupancy at 0.3 mg/kg (brain TSPO [3]; rat cerebral cortex): 47.7%
receptor occupancy at 1 mg/kg (brain TSPO [3]; rat cerebral cortex): 83.8%
receptor occupancy at 3 mg/kg (brain TSPO [3]; rat cerebral cortex): 94.5%
receptor occupancy at 0.1 mg/kg (brain TSPO [3]; rat hippocampus): 25.7%
receptor occupancy at 0.3 mg/kg (brain TSPO [3]; rat hippocampus): 50.7%
receptor occupancy at 1 mg/kg (brain TSPO [3]; rat hippocampus): 86.3%
receptor occupancy at 3 mg/kg (brain TSPO [3]; rat hippocampus): 95.1%
brain TSPO occupancy required to exert antistress, antidepressant and antianxiety effect (brain TSPO [3]; rats, achieved by 0.3 to 3 mg/kg, from Biological examples 1 to 4): ≥ 50%
Compound: COc1cc(Cl)ccc1[C@H]1c2[nH]c3cccc(F)c3c2C2(CC2)CN1C(C)=O [the compound of the present invention, (1S)-2-acetyl-1-(4-chloro-2-methoxyphenyl)-5-fluoro-1,2,3,9-tetrahydrospiro[β-carboline-4,1′-cyclopropane]]
freezing time vs. vehicle control group [1]: shortened this extended freezing time significantly

Reference: US20170119742A1, “MEDICAMENT FOR PREVENTING AND/OR TREATING STRESS DISEASES” (ONO PHARMACEUTICAL CO., LTD., priority 2014, published 2017)
